Measured values reported in PubChem BioAssay (NCI).
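Growth conditions: 96-well plates. Treatment: test compound, 48 hours, 5 concentrations. Analysis: linear interpolation between bracketing concentrations; unreached endpoints set to highest concentration. At the GI50, growth is halved. TGI: concentration producing complete growth inhibition.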

Tests used:
Experiment in all cases: inhibition of tumour cell growth, NCI panel, 48 h
HCT-116 colon = tested on: HCT-116 colon
MDA-MB-435 = tested on: MDA-MB-435
NCI-H522 lung = tested on: NCI-H522 lung
MOLT-4 leukemia = tested on: MOLT-4 leukemia
DU-145 prostate = tested on: DU-145 prostate
SK-MEL-5 melanoma = tested on: SK-MEL-5 melanoma
HOP-92 NSCLC = tested on: HOP-92 NSCLC
CAKI-1 renal = tested on: CAKI-1 renal
HCT-15 colon = tested on: HCT-15 colon
SK-MEL-28 melanoma = tested on: SK-MEL-28 melanoma
HT29 colon = tested on: HT29 colon
ACHN renal = tested on: ACHN renal
OVCAR-8 ovarian = tested on: OVCAR-8 ovarian
NCI-H226 lung = tested on: NCI-H226 lung
RPMI-8226 leukemia = tested on: RPMI-8226 leukemia
KM12 colon = tested on: KM12 colon
BT-549 breast = tested on: BT-549 breast
OVCAR-3 ovarian = tested on: OVCAR-3 ovarian
SF-539 CNS = tested on: SF-539 CNS
NCI-H23 lung = tested on: NCI-H23 lung
UACC-257 melanoma = tested on: UACC-257 melanoma
CCRF-CEM leukemia = tested on: CCRF-CEM leukemia
HS 578T breast = tested on: HS 578T breast
HOP-62 NSCLC = tested on: HOP-62 NSCLC
NCI/ADR-RES ovarian = tested on: NCI/ADR-RES ovarian
LOX IMVI melanoma = tested on: LOX IMVI melanoma
K-562 leukemia = tested on: K-562 leukemia
A498 renal = tested on: A498 renal
M14 melanoma = tested on: M14 melanoma

## COc1cc(/C=C/C(=O)c2cc(OC)c(OC)c(OC)c2)ccc1OCc1ccccc1
HCT-116 colon
  TGI: > 100 µM
MDA-MB-435
  GI50: 3.2 µM
  TGI: > 100 µM
NCI-H522 lung
  GI50: 1.45 µM
  TGI: 3.43 µM
MOLT-4 leukemia
  GI50: 3.01 µM
  TGI: 73.4 µM
DU-145 prostate
  GI50: 3.55 µM
  TGI: > 100 µM
SK-MEL-5 melanoma
  GI50: 2.65 µM
  TGI: 11.1 µM
HOP-92 NSCLC
  GI50: 1.88 µM
  TGI: 7.57 µM
CAKI-1 renal
  GI50: 4.11 µM
  TGI: > 100 µM
HCT-15 colon
  GI50: 1.75 µM
  TGI: 5.28 µM
SK-MEL-28 melanoma
  GI50: 3.79 µM
  TGI: 30.6 µM
HT29 colon
  GI50: 2.66 µM
  TGI: > 100 µM
ACHN renal
  GI50: 2.16 µM
  TGI: 5.75 µM
OVCAR-8 ovarian
  GI50: 2.16 µM
  TGI: 5.8 µM
NCI-H226 lung
  GI50: 4.16 µM
  TGI: > 100 µM
RPMI-8226 leukemia
  GI50: 1.9 µM
  TGI: > 100 µM
KM12 colon
  GI50: 3.6 µM
  TGI: > 100 µM
BT-549 breast
  GI50: 1.83 µM
  TGI: 3.9 µM
OVCAR-3 ovarian
  GI50: 3.75 µM
  TGI: > 100 µM
SF-539 CNS
  GI50: 2.04 µM
  TGI: 4.28 µM
NCI-H23 lung
  GI50: 2.37 µM
  TGI: 7.23 µM
UACC-257 melanoma
  GI50: 3.29 µM
  TGI: 68.9 µM
CCRF-CEM leukemia
  GI50: 3 µM
  TGI: > 100 µM
HS 578T breast
  GI50: 4.06 µM
  TGI: > 100 µM
HOP-62 NSCLC
  GI50: 3.49 µM
  TGI: 43.4 µM
NCI/ADR-RES ovarian
  GI50: 2.82 µM
  TGI: 9.4 µM
LOX IMVI melanoma
  GI50: 1.69 µM
  TGI: 4.09 µM
K-562 leukemia
  GI50: 2.59 µM
  TGI: > 100 µM
A498 renal
  GI50: 15.8 µM
  TGI: 58.9 µM
M14 melanoma
  GI50: 4.77 µM
  TGI: > 100 µM
